From patent publication US9034855B2, “Substituted phenylacetate and phenylpropane amides and use thereof” (Bayer Intellectual Property GmbH, priority 2010, dated 2015)
pIC50: −log10 of the molar value.

Tests used:
human V2 receptor = target: T1, human V2 receptor (Homo sapiens, UniProt P30518); test: Cellular in vitro assay for determining the vasopressin receptor activity (aequorin luminescence, recombinant CHO cells), human V2; assay type: cell-based; conditions: CHO cells expressing aequorin and Gα16, transfected with human V2 receptor; agonist [Arg8]-vasopressin; read-out: IC50 hV2
T1 construct: expressed in transfected cells; host or cells: CHO K1 (ATCC), constitutively expressing modified aequorin, co-transfected with promiscuous G-alpha-16
T1 sequence (P30518 whole entry): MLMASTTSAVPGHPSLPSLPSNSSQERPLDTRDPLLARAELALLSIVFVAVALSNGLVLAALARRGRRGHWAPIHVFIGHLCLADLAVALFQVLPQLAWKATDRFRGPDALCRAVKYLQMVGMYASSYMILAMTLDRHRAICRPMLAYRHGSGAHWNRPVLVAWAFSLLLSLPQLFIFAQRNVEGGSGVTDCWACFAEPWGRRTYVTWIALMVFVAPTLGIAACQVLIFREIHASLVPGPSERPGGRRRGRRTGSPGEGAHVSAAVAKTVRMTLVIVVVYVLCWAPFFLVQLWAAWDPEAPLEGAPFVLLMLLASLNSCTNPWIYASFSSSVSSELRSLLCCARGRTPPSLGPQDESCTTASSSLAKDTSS
Text: (§1) B-1. Cellular In Vitro Assay for Determining the Vasopressin Receptor Activity
(§2) The identification of agonists and antagonists of the V1a and V2 vasopressin receptors from humans and rats and also the quantification of the activity of the substances described here takes place using recombinant cell lines. These cells derive originally from a hamster's ovary epithelial cell (Chinese Hamster Ovary, CHO K1, ATCC: American Type Culture Collection, Manassas, Va. 20108, USA). The test cell lines constitutively express a modified form of the calcium-sensitive photoprotein aequorin, which, after reconstitution with the cofactor coelenterazine, emits light when there are increases in the free calcium concentration (Rizzuto R., Simpson A. W., Brini M., Pozzan T.; Nature 358 (1992) 325-327). In addition, the cells are stably transfected with the human or rat V1a or V2 receptors. In the case of the Gs-coupling V2 receptors, the cells are stably transfected with a further gene, which codes for the promiscuous Gα16 protein (Amatruda T. T., Steele D. A., Slepak V. Z., Simon M A., Proc. Na. Acad. Sci. USA 88 (1991), 5587-5591), either independently or as a fusion gene. The resulting vasopressin receptor test cells react to stimulation of the recombinantly expressed vasopressin receptors by intracellular release of calcium ions, which can be quantified by the resulting aequorin luminescence using a suitable luminometer (Milligan G., Marshall F., Rees S., Trends in Pharmaco. Sci. 17 (1996) 235-237).
(§3) On the day before the assay, the cells are plated out in culture medium (DMEM, 10% FCS, 2 mM glutamine, 10 mM HEPES) in 384-well microtiter plates and kept in a cell incubator (96% atmospheric humidity, 5% v/v carbon dioxide, 37° C.). On the day of the assay, the culture medium is replaced by a Tyrode solution (140 mM sodium chloride, 5 mM potassium chloride, 1 mM magnesium chloride, 2 mM calcium chloride, 20 mM glucose, 20 mM HEPES), which additionally contains the cofactor coelenterazine (50 μM), and the microtiter plate is then incubated for a further 3-4 hours. The test substances in various concentrations are placed for 10 to 20 minutes in the wells of the microtiter plate before the agonist [Arg8]-vasopressin is added, and the resulting light signal is measured immediately in the luminometer. The IC50 values are calculated using the GraphPad PRISM computer program (Version 3.02).
(§4) Table A below lists representative IC50 values for the compounds according to the invention transfected with the human V1a or V2 receptor: […]

human V1a receptor = target: T2, human V1a receptor (Homo sapiens, UniProt P37288); test: Cellular in vitro assay for determining the vasopressin receptor activity (aequorin luminescence, recombinant CHO cells), human V1a; assay type: cell-based; conditions: CHO cells expressing aequorin, transfected with human V1a receptor; agonist [Arg8]-vasopressin; read-out: IC50 hV1a
T2 construct: expressed in transfected cells; host or cells: CHO K1 (ATCC), constitutively expressing modified aequorin
T2 sequence (P37288 whole entry): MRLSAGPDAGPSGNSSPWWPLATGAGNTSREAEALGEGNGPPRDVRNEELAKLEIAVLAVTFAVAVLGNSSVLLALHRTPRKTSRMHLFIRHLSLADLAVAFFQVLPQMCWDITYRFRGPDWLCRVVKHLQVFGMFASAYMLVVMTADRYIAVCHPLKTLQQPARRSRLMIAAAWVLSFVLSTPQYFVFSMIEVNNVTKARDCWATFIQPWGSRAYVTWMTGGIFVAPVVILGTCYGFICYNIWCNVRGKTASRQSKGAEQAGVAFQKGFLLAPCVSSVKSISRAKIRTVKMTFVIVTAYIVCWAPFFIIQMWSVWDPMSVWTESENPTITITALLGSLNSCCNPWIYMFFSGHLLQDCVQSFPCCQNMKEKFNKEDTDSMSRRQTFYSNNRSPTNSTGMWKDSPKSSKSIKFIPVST
Text: as §1, §2, §3, §4

| Structure (SMILES) | pIC50 (human V2 receptor) | pIC50 (human V1a receptor) |
| --- | --- | --- |
| COC(=O)C(C)(C)NC(=O)[C@](C)(NC(=O)Cn1nc(-c2ccc(Cl)cc2)n(C[C@H](O)C(F)(F)F)c1=O)c1cccc(C(F)(F)F)c1 [Example 20, Methyl N-{(2R)-2-[({3-(4-chlorophenyl)-5-oxo-4-[(2S)-3,3,3-trifluoro-2-hydroxypropyl]-4,5-dihydro-1H-1,2,4-triazol-1-yl}acetyl)amino]-2-[3-(trifluoromethyl)phenyl]propanoyl}-2-methylalaninate] | 8.35 | 8.62 |
| COCCNC(=O)C(NC(=O)Cn1nc(-c2ccc(Cl)cc2)n(C[C@H](O)C(F)(F)F)c1=O)c1ccccc1C(F)(F)F (stereo partly drawn) [Example 56, 2-[({3-(4-Chlorophenyl)-5-oxo-4-[(2S)-3,3,3-trifluoro-2-hydroxypropyl]-4,5-dihydro-1H-1,2,4-triazol-1-yl}acetyl)amino]-N-(2-methoxyethyl)-2-[2-(trifluoromethyl)phenyl]acetamide] | 6.84 | 8.52 |
| O=C(O)CCNC(=O)C(NC(=O)Cn1nc(-c2ccc(Cl)cc2)n(C[C@H](O)C(F)(F)F)c1=O)c1cccc(C(F)(F)F)c1 (stereo partly drawn) [Example 14, N-{[({3-(4-Chlorophenyl)-5-oxo-4-[(2S)-3,3,3-trifluoro-2-hydroxypropyl]-4,5-dihydro-1H-1,2,4-triazol-1-yl}acetyl)amino][3-(trifluoromethyl)phenyl]acetyl}-beta-alanine] | 8.05 | 7.28 |
| CC(C)(NC(=O)C(NC(=O)Cn1nc(-c2ccc(Cl)cc2)n(CCC(F)(F)F)c1=O)c1ccccc1Cl)C(N)=O (racemic) [Example 35, N^2-[(2-Chlorophenyl)({[3-(4-chlorophenyl)-5-oxo-4-(3,3,3-trifluoropropyl)-4,5-dihydro-1H-1,2,4-triazol-1-yl]acetyl}amino)acetyl]-2-methylalaninamide] | 6.18 | 8.05 |
| CC(C)(NC(=O)C(NC(=O)Cn1nc(-c2ccc(Cl)cc2)n(C[C@H](O)C(F)(F)F)c1=O)c1cccc(C(F)(F)F)c1)C(N)=O (single isomer, unassigned) [Example 29] | 8.48 | 9.00 |
| CC(C)(NC(=O)C(NC(=O)Cn1nc(-c2ccc(Cl)cc2)n(Cc2ccccc2F)c1=O)c1ccccc1Cl)C(N)=O (racemic) [Example 33, N^2-[(2-Chlorophenyl)({[3-(4-chlorophenyl)-4-(2-fluorobenzyl)-5-oxo-4,5-dihydro-1H-1,2,4-triazol-1-yl]acetyl}amino)acetyl]-2-methylalaninamide] | 5.98 | 7.77 |
| CC(C)(NC(=O)C[C@H](NC(=O)Cn1nc(-c2ccc(Cl)cc2)n(C[C@H](O)C(F)(F)F)c1=O)c1cccc(C(F)(F)F)c1)C(N)=O [Example 40, N^2-{(3S)-3-[({3-(4-Chlorophenyl)-5-oxo-4-[(2S)-3,3,3-trifluoro-2-hydroxypropyl]-4,5-dihydro-1H-1,2,4-triazol-1-yl}acetyl)amino]-3-[3-(trifluoromethyl)phenyl]propanoyl}-2-methylalaninamide] | 8.09 | 7.95 |
| O=C(C[C@H](NC(=O)Cn1nc(-c2ccc(Cl)cc2)n(C[C@H](O)C(F)(F)F)c1=O)c1ccccc1C(F)(F)F)NCCO [Example 53, (3S)-3-[({3-(4-Chlorophenyl)-5-oxo-4-[(2S)-3,3,3-trifluoro-2-hydroxypropyl]-4,5-dihydro-1H-1,2,4-triazol-1-yl}acetyl)amino]-N-(2-hydroxyethyl)-3-[2-(trifluoromethyl)phenyl]propanamide] | 8.59 | 9.05 |
| CC(C)(CO)NC(=O)C(NC(=O)Cn1nc(-c2ccc(Cl)cc2)n(C[C@H](O)C(F)(F)F)c1=O)c1cccc(C(F)(F)F)c1 (single isomer, unassigned) [Example 41] | 8.44 | 8.82 |
| CC(C)(NC(=O)C[C@H](NC(=O)Cn1nc(-c2ccc(Cl)cc2)n(C[C@H](O)C(F)(F)F)c1=O)c1cccc(C(F)(F)F)c1)C(=O)O [Example 39, N-{(3S)-3-[({3-(4-Chlorophenyl)-5-oxo-4-[(2S)-3,3,3-trifluoro-2-hydroxypropyl]-4,5-dihydro-1H-1,2,4-triazol-1-yl}acetyl)amino]-3-[3-(trifluoromethyl)phenyl]propanoyl}-2-methylalanine] | 9.10 | 8.31 |
| COCCNC(=O)C[C@H](NC(=O)Cn1nc(-c2ccc(Cl)cc2)n(C[C@H](O)C(F)(F)F)c1=O)c1cccc(C(F)(F)F)c1 [Example 57, (3S)-3-[({3-(4-Chlorophenyl)-5-oxo-4-[(2S)-3,3,3-trifluoro-2-hydroxypropyl]-4,5-dihydro-1H-1,2,4-triazol-1-yl}acetyl)amino]-N-(2-methoxyethyl)-3-[3-(trifluoromethyl)phenyl]propanamide] | 8.13 | 7.84 |
| CCOC(=O)C1(NC(=O)C(NC(=O)Cn2nc(-c3ccc(Cl)cc3)n(C[C@H](O)C(F)(F)F)c2=O)c2cccc(C(F)(F)F)c2)CC1 (stereo partly drawn) [Example 1, Ethyl 1-({[({3-(4-chlorophenyl)-5-oxo-4-[(2S)-3,3,3-trifluoro-2-hydroxypropyl]-4,5-dihydro-1H-1,2,4-triazol-1-yl}acetyl)amino][3-(trifluoromethyl)phenyl]acetyl}amino)cyclopropanecarboxylate] | 7.24 | 8.04 |
| CC(C)(NC(=O)C(NC(=O)Cn1nc(-c2ccc(Cl)cc2)n(C[C@H](O)C(F)(F)F)c1=O)c1cccc(C(F)(F)F)c1)C(=O)O (single isomer, unassigned) [Example 25] | 6.55 | 6.30 |
| CC(C)(NC(=O)C(NC(=O)Cn1nc(-c2ccc(Cl)cc2)n(C[C@H](O)C(F)(F)F)c1=O)c1cccc(C(F)(F)F)c1)C(N)=O (single isomer, unassigned) [Example 28] | 6.46 | 5.86 |
| CC(C)(NC(=O)[C@](C)(NC(=O)Cn1nc(-c2ccc(Cl)cc2)n(C[C@H](O)C(F)(F)F)c1=O)c1cccc(C(F)(F)F)c1)C(N)=O [Example 22, N^2-{(2R)-2-[({3-(4-Chlorophenyl)-5-oxo-4-[(2S)-3,3,3-trifluoro-2-hydroxypropyl]-4,5-dihydro-1H-1,2,4-triazol-1-yl}acetyl)amino]-2-[3-(trifluoromethyl)phenyl}propanoyl]-2-methylalaninamide] | 8.57 | 8.92 |
| COCCNC(=O)C[C@H](NC(=O)Cn1nc(-c2ccc(Cl)cc2)n(C[C@H](O)C(F)(F)F)c1=O)c1ccccc1C(F)(F)F [Example 58, (3S)-3-[({3-(4-Chlorophenyl)-5-oxo-4-[(2S)-3,3,3-trifluoro-2-hydroxypropyl]-4,5-dihydro-1H-1,2,4-triazol-1-yl}acetyl)amino]-N-(2-methoxyethyl)-3-[2-(trifluoromethyl)phenyl]propanamide] | 6.87 | 8.46 |
| O=C(Cn1nc(-c2ccc(Cl)cc2)n(C[C@H](O)C(F)(F)F)c1=O)NC(C(=O)NC1(C(=O)O)CC1)c1cccc(C(F)(F)F)c1 (single isomer, unassigned) [Example 3] | 6.33 | 6.26 |
| COC(=O)CCNC(=O)C(NC(=O)Cn1nc(-c2ccc(Cl)cc2)n(C2CC2)c1=O)c1cccc(C(F)(F)F)c1 (racemic) [Example 15, Methyl N-{({[3-(4-chlorophenyl)-4-cyclopropyl-5-oxo-4,5-dihydro-1H-1,2,4-triazol-1-yl]acetyl}-amino) [3-(trifluoromethyl)phenyl]acetyl}-beta-alaninate] | 6.51 | 7.92 |
| O=C(Cn1nc(-c2ccc(Cl)cc2)n(C[C@H](O)C(F)(F)F)c1=O)NC(C(=O)NCCO)c1cccc(C(F)(F)F)c1 (stereo partly drawn) [Example 49, 2-[({3-(4-Chlorophenyl)-5-oxo-4-[(2S)-3,3,3-trifluoro-2-hydroxypropyl]-4,5-dihydro-1H-1,2,4-triazol-1-yl}acetyl)amino]-N-(2-hydroxyethyl)-2-[3-(trifluoromethyl)phenyl]acetamide] | 8.12 | 8.66 |
| CC(C)(NC(=O)C(NC(=O)Cn1nc(-c2ccc(Cl)cc2)n(C[C@H](O)C(F)(F)F)c1=O)c1cccc(C(F)(F)F)c1)C(=O)O (single isomer, unassigned) [Example 26] | 8.64 | 8.77 |
